What was measured:
[1] = test system: mouse; conditions: Prenatal developmental toxicity study, cd1, Oral, Gavage/Intubation, dose end: 17 GD
[2] = test system: rat; conditions: Multigenerational reproductive toxicity study, wistar, Oral, Feed, dose end: 2 generation
[3] = test system: rat; conditions: Multigenerational reproductive toxicity study, sprague dawley, Oral, Gavage/Intubation, dose end: 2 generation
[4] = test system: rat; conditions: Prenatal developmental toxicity study, other, Oral, Gavage/Intubation, dose end: 19 GD
[5] = test system: rat; conditions: Multigenerational reproductive toxicity study, sprague dawley, Oral, Feed, dose end: 2 generation
[6] = test system: rat; conditions: Prenatal developmental toxicity study, sprague dawley, Oral, Gavage/Intubation, dose end: 15 GD
[7] = test system: rat; conditions: Multigenerational reproductive toxicity study, sprague dawley, Oral, Feed, dose end: 2 generation; remark: listed apart in the source
[8] = test system: rabbit; conditions: Prenatal developmental toxicity study, new zealand white, Oral, Gavage/Intubation, dose end: 18 GD
[9] = test system: rat; conditions: Prenatal developmental toxicity study, sprague dawley, Oral, Gavage/Intubation, dose end: 16 GD
[10] = test system: mouse; conditions: Prenatal developmental toxicity study, cd1, Oral, Gavage/Intubation, dose end: 17 GD; remark: listed apart in the source
[11] = test system: rat; conditions: Prenatal developmental toxicity study, sprague dawley, Oral, Gavage/Intubation, dose end: 15 GD; remark: listed apart in the source
[12] = test system: rabbit; conditions: Prenatal developmental toxicity study, dutch, Oral, Gavage/Intubation, dose end: 18 GD
[13] = test system: rat; conditions: Multigenerational reproductive toxicity study, wistar, Oral, Gavage/Intubation, dose end: 2 generation
[14] = test system: rat; conditions: Combined chronic toxicity/carcinogenicity, fischer, Oral, Feed, dose end: 2 year
[15] = test system: mouse; conditions: Carcinogenicity, cd1, Oral, Feed, dose end: 78 week
[16] = group: developmental, developmental / developmental malformation / bone / supernumerary + systemic / in life observation / body weight / fetal weight
[17] = group: maternal, systemic / in life observation / body weight / body weight + systemic / in life observation / body weight / body weight gain + systemic / …
[18] = group: offspring, developmental / developmental landmark / preputial separation / preputial separation + systemic / in life observation / body weight / …
[19] = group: parental, systemic / pathology gross / eye / opacity + systemic / pathology microscopic / eye / inflammation + systemic / pathology microscopic / eye…
[20] = group: reproductive, reproductive / reproductive performance / estrous cycle / abnormal + reproductive / reproductive performance / estrous cycle / corpora lutea
[21] = group: offspring, developmental / offspring survival late / viability index / viability index + systemic / in life observation / body weight / offspring (pup…
[22] = group: parental, systemic / pathology microscopic / liver / hypertrophy + systemic / pathology microscopic / kidney / regeneration + systemic / organ weight…
[23] = group: parental, systemic / pathology microscopic / liver / hypertrophy + systemic / pathology microscopic / kidney / regeneration + systemic / pathology …
[24] = group: developmental, developmental / developmental malformation / bone / [other] + developmental / developmental malformation / bone / bipartite ossification + …
[25] = group: maternal, systemic / in life observation / body weight / body weight gain + systemic / in life observation / food consumption / food efficiency
[26] = group: offspring, systemic / organ weight / kidney / absolute + systemic / organ weight / liver / absolute + systemic / pathology gross / kidney / enlarged + …
[27] = group: parental, systemic / organ weight / liver / absolute + systemic / organ weight / kidney / absolute
[28] = group: reproductive, reproductive / offspring survival early / birth index / live birth index
[29] = group: developmental, developmental / developmental malformation / bone / incomplete ossification + developmental / developmental malformation / bone / …
[30] = group: maternal, systemic / in life observation / body weight / body weight gain + systemic / in life observation / food consumption / food consumption
[31] = group: offspring, developmental / offspring survival late / viability index / viability index + developmental / developmental landmark / anogenital distance (…
[32] = group: offspring, systemic / organ weight / kidney / absolute + systemic / organ weight / liver / absolute + systemic / pathology microscopic / liver / …
[33] = group: parental, systemic / in life observation / body weight / body weight + systemic / organ weight / kidney / absolute + systemic / organ weight / liver…
[34] = group: parental, systemic / organ weight / liver / absolute + systemic / pathology microscopic / liver / hypertrophy + systemic / organ weight / kidney / …
[35] = group: developmental, developmental / developmental malformation / bone / absent + developmental / developmental malformation / bone / full supernumerary
[36] = group: maternal, reproductive / reproductive performance / resorptions / resorptions + systemic / in life observation / body weight / body weight gain + …
[37] = group: maternal, systemic / in life observation / clinical signs / respiration (dyspnea)
[38] = group: developmental, systemic / in life observation / body weight / fetal weight
[39] = group: maternal, systemic / in life observation / food consumption / food consumption
[40] = group: maternal, systemic / in life observation / food consumption / food consumption + systemic / in life observation / body weight / body weight
[41] = group: maternal, reproductive / reproductive performance / postimplantation loss / postimplantation loss + systemic / in life observation / body weight / …
[42] = group: developmental, developmental / developmental malformation / bone / [other] + developmental / developmental malformation / bone / incomplete ossification + …
[43] = group: maternal, systemic / in life observation / body weight / body weight gain
[44] = group: offspring, developmental / offspring survival late / lactation index / lactation index
[45] = group: parental, systemic / in life observation / body weight / body weight + systemic / in life observation / clinical signs / poor general condition
[46] = group: cholinesterase, cholinesterase / cholinesterase / cholinesterase / erythrocyte cholinesterase (che)
[47] = group: systemic, systemic / pathology microscopic / stomach / mineralization + systemic / in life observation / body weight / body weight + systemic / in …
[48] = group: cholinesterase, cholinesterase / cholinesterase / cholinesterase / brain cholinesterase (che) + cholinesterase / cholinesterase / cholinesterase / …
[49] = group: systemic, systemic / in life observation / body weight / body weight + systemic / in life observation / body weight / body weight gain + systemic / in…

## C=CC(=O)NCNC(=O)C=C [N,N'-Methylenebisacrylamide]
[1]; group: developmental, developmental / developmental malformation / bone / supernumerary
  LEL: 10 mg/kg/day
[1]; [16]
  LOAEL: > 30 mg/kg/day
  NEL: 3 mg/kg/day
  NOAEL: ≥ 30 mg/kg/day
[1]; [17]
  LOAEL: > 30 mg/kg/day
  NEL: 3 mg/kg/day
  NOAEL: ≥ 30 mg/kg/day
[1]; group: maternal, systemic / in life observation / body weight / body weight + systemic / organ weight / liver / relative to body weight + systemic / organ …
  LEL: 10 mg/kg/day

## CS(=O)(=O)c1ccc(C(=O)C2C(=O)CCCC2=O)c(Cl)c1COCC(F)(F)F [Tembotrione]
[2]; [18]
  LEL: 1.3 mg/kg/day
  LOAEL: 1.3 mg/kg/day
  NEL: < 1.3 mg/kg/day
  NOAEL: < 1.3 mg/kg/day
[2]; [19]
  LEL: 1.3 mg/kg/day
  LOAEL: 1.3 mg/kg/day
  NEL: < 1.3 mg/kg/day
  NOAEL: < 1.3 mg/kg/day
[2]; [20]
  LEL: 123 mg/kg/day
  LOAEL: 123 mg/kg/day
  NEL: 16.2 mg/kg/day
  NOAEL: 16.2 mg/kg/day

## CCN(CC)C(=O)SCc1ccc(Cl)cc1 [Thiobencarb]
[3]; [21]
  LEL: 100 mg/kg/day
  LOAEL: > 100 mg/kg/day
  NEL: 20 mg/kg/day
  NOAEL: ≥ 100 mg/kg/day
[3]; [22]
  LEL: 2 mg/kg/day
  NEL: < 2 mg/kg/day
[3]; [23]
  LOAEL: 2 mg/kg/day
  NOAEL: < 2 mg/kg/day
[4]; [24]
  LEL: 150 mg/kg/day
  LOAEL: 150 mg/kg/day
  NEL: 25 mg/kg/day
  NOAEL: 25 mg/kg/day
[4]; [25]
  LEL: 150 mg/kg/day
  LOAEL: 150 mg/kg/day
  NEL: 25 mg/kg/day
  NOAEL: 25 mg/kg/day

## CC(C)CCCCCCCOC(=O)c1ccccc1C(=O)OCCCCCCCC(C)C [Diisodecyl phthalate]
[5]; [26]
  LEL: 100 mg/kg/day
  LOAEL: > 200 mg/kg/day
  NEL: 30 mg/kg/day
  NOAEL: ≥ 200 mg/kg/day
[5]; group: parental, systemic / organ weight / liver / absolute
  NEL: 100 mg/kg/day
[5]; [27]
  LEL: 200 mg/kg/day
  LOAEL: > 200 mg/kg/day
  NOAEL: ≥ 200 mg/kg/day
[5]; [28]
  LEL: 100 mg/kg/day
  LOAEL: > 200 mg/kg/day
  NEL: 30 mg/kg/day
  NOAEL: ≥ 200 mg/kg/day
[6]; [29]
  LEL: 1000 mg/kg/day
  LOAEL: > 1000 mg/kg/day
  NEL: 500 mg/kg/day
  NOAEL: ≥ 1000 mg/kg/day
[6]; [30]
  LEL: 1000 mg/kg/day
  LOAEL: > 1000 mg/kg/day
  NEL: 500 mg/kg/day
  NOAEL: ≥ 1000 mg/kg/day
[7]; [31]
  LOAEL: > 400 mg/kg/day
  NOAEL: ≥ 400 mg/kg/day
[7]; [32]
  LEL: 100 mg/kg/day
  NEL: < 100 mg/kg/day
[7]; [33]
  LOAEL: > 400 mg/kg/day
  NOAEL: ≥ 400 mg/kg/day
[7]; [34]
  LEL: 100 mg/kg/day
  NEL: < 100 mg/kg/day
[7]; [28]
  LEL: 100 mg/kg/day
  LOAEL: > 400 mg/kg/day
  NEL: < 100 mg/kg/day
  NOAEL: ≥ 400 mg/kg/day

## C=CCOC(Cn1ccnc1)c1ccc(Cl)cc1Cl.O=S(=O)(O)O (configuration not stated) [Imazalil sulfate]
[8]; [35]
  LEL: 20 mg/kg/day
  LOAEL: > 20 mg/kg/day
  NEL: 10 mg/kg/day
  NOAEL: ≥ 20 mg/kg/day
[8]; [36]
  LOAEL: 10 mg/kg/day
  NOAEL: 5 mg/kg/day
[8]; [37]
  LEL: 5 mg/kg/day
  NEL: < 5 mg/kg/day
[9]; [38]
  LEL: 80 mg/kg/day
  LOAEL: 80 mg/kg/day
  NEL: 40 mg/kg/day
  NOAEL: 40 mg/kg/day
[9]; [39]
  LOAEL: 40 mg/kg/day
  NOAEL: < 40 mg/kg/day
[9]; [40]
  LEL: 40 mg/kg/day
  NEL: < 40 mg/kg/day

## C=C(C)C(N)=O [Methacrylamide]
[10]; [38]
  LEL: 120 mg/kg/day
  LOAEL: > 180 mg/kg/day
  NEL: 60 mg/kg/day
  NOAEL: ≥ 180 mg/kg/day
[10]; [41]
  LOAEL: > 180 mg/kg/day
  NEL: 60 mg/kg/day
  NOAEL: ≥ 180 mg/kg/day
[10]; group: maternal, systemic / organ weight / liver / relative to body weight
  LEL: 120 mg/kg/day

## Cc1cccc(N)c1N [2,3-Diaminotoluene]
[11]; group: developmental, developmental / developmental malformation / bone / [other] + developmental / developmental malformation / bone / incomplete ossification
  LEL: 100 mg/kg/day
[11]; [42]
  LOAEL: > 300 mg/kg/day
  NEL: 30 mg/kg/day
  NOAEL: ≥ 300 mg/kg/day
[11]; [43]
  LEL: 300 mg/kg/day
  LOAEL: > 300 mg/kg/day
  NEL: 100 mg/kg/day
  NOAEL: ≥ 300 mg/kg/day
[12]; [38]
  LEL: 100 mg/kg/day
  LOAEL: > 100 mg/kg/day
  NEL: 30 mg/kg/day
  NOAEL: ≥ 100 mg/kg/day
[12]; group: maternal, reproductive / reproductive performance / resorptions / resorptions + systemic / in life observation / body weight / body weight gain
  NEL: 30 mg/kg/day
[12]; [36]
  LEL: 100 mg/kg/day
  LOAEL: > 100 mg/kg/day
  NOAEL: ≥ 100 mg/kg/day

## N#Cc1ccc(CC(=NNC(=O)Nc2ccc(OC(F)(F)F)cc2)c2cccc(C(F)(F)F)c2)cc1 (mixture of isomers) [Metaflumizone]
[13]; [44]
  LEL: 50 mg/kg/day
  LOAEL: 50 mg/kg/day
  NEL: 20 mg/kg/day
  NOAEL: 20 mg/kg/day
[13]; [45]
  LEL: 50 mg/kg/day
  LOAEL: 50 mg/kg/day
  NEL: 20 mg/kg/day
  NOAEL: 20 mg/kg/day

## CCOC(=O)CC(SP(=O)(OC)OC)C(=O)OCC (configuration not stated) [Malaoxon]
[14]; [46]
  LEL: 1 mg/kg/day
  LOAEL: 1 mg/kg/day
  NEL: < 1 mg/kg/day
  NOAEL: < 1 mg/kg/day
[14]; group: systemic, systemic / pathology microscopic / stomach / mineralization
  LOAEL: 57 mg/kg/day
[14]; [47]
  NEL: 1 mg/kg/day
  NOAEL: 1 mg/kg/day
[14]; group: systemic, systemic / pathology microscopic / stomach / mineralization + systemic / in life observation / food consumption / food consumption
  LEL: 57 mg/kg/day

## CCN(CC)c1nc(C)cc(OP(=S)(OC)OC)n1 [Pirimiphos-methyl]
[15]; [48]
  LEL: 8.3 mg/kg/day
  LOAEL: 8.3 mg/kg/day
  NEL: < 8.3 mg/kg/day
  NOAEL: < 8.3 mg/kg/day
[15]; [49]
  LEL: 33 mg/kg/day
  LOAEL: 33 mg/kg/day
  NEL: 8.3 mg/kg/day
  NOAEL: 8.3 mg/kg/day

— EPA's ToxRefDB 2
